The values that follow come from PubChem BioAssay (NCI).

Values joined by “and” are separate entries in the source; they are usually repeats but may differ in a detail not shown here. Equal values may be shown once.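 Each compound was tested at five concentrations against cells in 96-well plates for 48 hours. Abbreviation: GI50, concentration required for 50% inhibition of growth. TGI denotes the concentration required for complete inhibition of growth.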

Test systems include RXF 393 renal; SNB-19 CNS; DU-145 prostate; T-47D breast; HS 578T breast; HCT-116 colon; SW-620 colon; IGROV1 ovarian.
Test in all cases: NCI tumour cell line growth inhibition, 48 h

For the compound `Cc1cc(O)c2c(c1)C(=O)C=CC2=O`, the TGI was 9.57 µM and 9.17 µM in the experiment on RXF 393 renal; 46.7 µM and 31.2 µM in the experiment on SNB-19 CNS; 30.8 µM and 46.7 µM with DU-145 prostate; 7.47 µM and 16.4 µM in the experiment with T-47D breast; 54.6 µM and 64.3 µM in the experiment on HS 578T breast; 10.2 µM and > 20.2 µM with HCT-116 colon. Moreover, the TGI with SW-620 colon is 23.9 µM and 22.4 µM; in the experiment with IGROV1 ovarian it was 27.4 µM and 24.1 µM. Also, the GI50 with SW-620 colon was 7.3 µM and 2.67 µM.

For `O=C(NCCNCCO)c1ccc2c(c1)oc1cc3ccccc3c(=O)n12`, the GI50 is 14.2 µM in the experiment on RXF 393 renal; over 50 µM in the experiment on SNB-19 CNS; 41.2 µM with DU-145 prostate; 24.7 µM in the experiment with T-47D breast; 22.8 µM in the experiment on HCT-116 colon; 18.1 µM with SW-620 colon. For the same compound, in the experiment on IGROV1 ovarian, the GI50 was 16.5 µM. The TGI in the experiment on RXF 393 renal, with SNB-19 CNS, in the experiment with DU-145 prostate, in the experiment on T-47D breast, in the experiment with HCT-116 colon and with SW-620 colon was over 50 µM in each case. The compound further had a TGI in the experiment with IGROV1 ovarian of over 50 µM.

In the case of `CCn1cc(C(=O)O)c(=O)c2cc(F)c(N3CCN(S(=O)(=O)c4cccc5ccccc45)CC3)cc21`, the GI50 in the experiment with RXF 393 renal is 3.19 µM; with SNB-19 CNS, 3.47 µM; with DU-145 prostate, 3.97 µM; with T-47D breast, 3.35 µM; in the experiment with HS 578T breast, 2.68 µM; with HCT-116 colon, 3.88 µM. The GI50 was 3.57 µM with SW-620 colon and 2.47 µM in the experiment on IGROV1 ovarian. In addition, the TGI is 11.8 µM in the experiment with RXF 393 renal; over 100 µM in the experiment with SNB-19 CNS; over 100 µM in the experiment on DU-145 prostate; over 100 µM in the experiment with T-47D breast; 9.88 µM in the experiment with HS 578T breast; over 100 µM in the experiment with HCT-116 colon. The TGI with SW-620 colon is over 100 µM; in the experiment on IGROV1 ovarian, 7.49 µM.

As to `O=C1NC(=N[C@@H](CO)c2ccccc2)S/C1=C\c1ccc2ncccc2c1`, the GI50 with RXF 393 renal was 5.84 µM; with SNB-19 CNS it was 24.2 µM; in the experiment on DU-145 prostate, 13.8 µM; in the experiment on T-47D breast it was 15.5 µM; in the experiment on HS 578T breast, 4.84 µM; with HCT-116 colon, 5.22 µM. For the same compound, the figures for the GI50 with SW-620 colon and in the experiment with IGROV1 ovarian were 7.25 µM and 4.71 µM, respectively. The TGI with RXF 393 renal, in the experiment with SNB-19 CNS, with DU-145 prostate, with T-47D breast, in the experiment on HS 578T breast and in the experiment with HCT-116 colon was over 25 µM throughout. Further, the TGI is over 25 µM in the experiment on SW-620 colon and over 18.3 µM with IGROV1 ovarian.

As for `O=C(OCc1ccc2c(Br)cc(Br)c(O)c2n1)c1cc2ccccc2[nH]1`, the GI50 is 0.338 µM in the experiment with RXF 393 renal; 1.8 µM with SNB-19 CNS; 0.91 µM with DU-145 prostate; 1.91 µM in the experiment with T-47D breast; 1.24 µM with HS 578T breast; 0.16 µM in the experiment with HCT-116 colon. The GI50 in the experiment on SW-620 colon is 0.333 µM; in the experiment with IGROV1 ovarian it was 0.66 µM. Besides, the TGI is 1.26 µM in the experiment on RXF 393 renal; 4.09 µM with SNB-19 CNS; 2.18 µM with DU-145 prostate; 5.29 µM in the experiment on T-47D breast; 3.87 µM with HS 578T breast; 0.368 µM with HCT-116 colon. The TGI is 1.13 µM with SW-620 colon and 1.91 µM in the experiment with IGROV1 ovarian.

On to `OC1(c2ccc(Cl)c(C(F)(F)F)c2)CCN(CCCC(c2ccc(F)cc2)c2ccc(F)cc2)CC1`, for which the GI50 was 0.638 µM in the experiment with RXF 393 renal; 1.13 µM with SNB-19 CNS; 0.897 µM with DU-145 prostate; 0.941 µM with T-47D breast; 0.857 µM with HS 578T breast; 0.734 µM with HCT-116 colon. For the same compound, the GI50 with SW-620 colon was 0.76 µM; in the experiment with IGROV1 ovarian, 0.975 µM. The TGI turned out to be 1.27 µM with RXF 393 renal; 3.86 µM in the experiment with SNB-19 CNS; 1.66 µM in the experiment on DU-145 prostate; 1.84 µM with T-47D breast; 1.93 µM with HS 578T breast; 1.41 µM with HCT-116 colon. Further, the TGI is 1.43 µM with SW-620 colon and 2.05 µM in the experiment on IGROV1 ovarian.

On to `Nc1nc2c(c3cnccc13)C(c1ccc(Cl)c(Cl)c1)Cc1cnccc1-2` (stereo not given), for which the GI50 with RXF 393 renal is 0.522 µM; in the experiment on SNB-19 CNS, 0.65 µM; in the experiment on DU-145 prostate, 0.615 µM; in the experiment on T-47D breast, 0.333 µM; with HS 578T breast, 0.818 µM; in the experiment with HCT-116 colon, 0.432 µM. The GI50 with SW-620 colon was 0.449 µM; in the experiment with IGROV1 ovarian, 1.85 µM. Moreover, the TGI in the experiment with RXF 393 renal stood at 3.48 µM; with SNB-19 CNS, 13.5 µM; in the experiment on DU-145 prostate it was 11.2 µM; in the experiment on T-47D breast it was 18.2 µM; with HS 578T breast, 22 µM; with HCT-116 colon, 11.2 µM. Further, the results for the TGI in the experiment with SW-620 colon and in the experiment on IGROV1 ovarian were 11.5 µM and 17.8 µM, respectively.

On to `CNCc1cccc2c1OCCOCCOCCN(C)S(=O)(=O)c1ccc(cc1)-c1cnc(N)c(n1)C(=O)N2`, for which the GI50 with RXF 393 renal is 0.614 µM; with SNB-19 CNS, 2.72 µM; in the experiment with DU-145 prostate, 1.27 µM; in the experiment on T-47D breast, 2.25 µM; in the experiment on HS 578T breast, 0.663 µM; in the experiment with HCT-116 colon, 1.19 µM. For the same compound, the GI50 in the experiment on SW-620 colon is 1.66 µM; with IGROV1 ovarian, 0.58 µM. Moreover, the TGI is 2.58 µM in the experiment with RXF 393 renal; 8.47 µM in the experiment on SNB-19 CNS; 15.2 µM in the experiment with DU-145 prostate; 6.15 µM in the experiment on T-47D breast; 3.64 µM in the experiment with HS 578T breast; 3.12 µM in the experiment with HCT-116 colon. For the same compound, the TGI in the experiment with SW-620 colon was found to be 4.25 µM; in the experiment with IGROV1 ovarian it was 12.8 µM.

Turning to `COc1cc2c(cc1Nc1nc(N3CCc4ccccc43)c3cc[nH]c3n1)N(C(=O)CN(C)C)CC2`, the GI50 in the experiment on RXF 393 renal is 3.55 µM; in the experiment on SNB-19 CNS, 4.44 µM; with DU-145 prostate, 1.71 µM; in the experiment on T-47D breast, 7.91 µM; in the experiment on HS 578T breast, 4.52 µM; in the experiment with HCT-116 colon, 1.33 µM. In addition, the GI50 was 0.35 µM in the experiment on SW-620 colon and 10.9 µM in the experiment with IGROV1 ovarian. Moreover, the TGI with RXF 393 renal was 8.89 µM; in the experiment with SNB-19 CNS it was 11.5 µM; with DU-145 prostate, 3.87 µM; with T-47D breast, 16.7 µM; with HS 578T breast, 11.4 µM; in the experiment on HCT-116 colon, 2.91 µM. Also, the TGI with SW-620 colon amounted to 0.8 µM; with IGROV1 ovarian it was 17.1 µM.
